# Reference: paper PMC9054013, “FCHO controls AP2’s initiating role in endocytosis through a PtdIns(4,5)P2-dependent switch” (Science Advances, 2022)
# pKd: −log10 of the molar value. Where no end group is shown, it is not given here.
# Assays:
# [1] = tested on: BR4-mutated (K339A, K341A, K343A, and K345A) His6-MBP-Cμ2; test: GST pull-down of BR4-mutated His6-MBP-Cμ2; format: binding; conditions: Coomassie SDS-PAGE
# Experimental: A measured amount of GST or GST-fusion protein was immobilized onto 60 μl of 50% slurry of GSH Sepharose beads in microfuge tubes and the volume made up to 750 μl with buffer. After incubation at 4°C with continuous mixing, the Sepharose beads were recovered by centrifugation (10,000g for 1 min), and the supernatants were removed. Each bead pellet was washed three times with cold assay buffer, and most of the buffer was carefully aspirated, leaving a final equivalent volume of ~50 μl.
# AP2 α-appendage = target: T1, AP2 α-appendage (Mus musculus, UniProt P17427); test: Isothermal titration calorimetry with α-appendage; format: binding; conditions: ITC
# T1 construct: GST-tagged Cμ2 and α-appendage proteins were made as in ([51]); GST (cleaved yes); made in house; host or cells: Escherichia coli BL21 plyS
# Cμ2 = target: T2, Cμ2; conditions: read-out: KD of YxxΦ cargo peptide binding to Cμ2; cited from earlier work
# T2 construct: Surface representations of the Cμ2 subdomain structure; His6; made in house; host or cells: Escherichia coli BL21 plyS
# From the text: page 20: Fig.S8 Details of FCHO C block binding to α -appendage and to Cµ2 A, B FCHO1 C block (claret) bound to AP2 α-appendage (blue). […] B 1.4 Å resolution 2Fo-Fc map contoured at 1.6σ. An apo structure of the α-appendage was used as MR search model (PDB 1W80 without ligands) – the direction of the peptide chain is clearly opposite to that of the published DP[FW], FxDxF motif/α-appendage complexes. C, D FCHO2 C block (claret ...
# T1 sequence (P17427 701-938 limits assumed): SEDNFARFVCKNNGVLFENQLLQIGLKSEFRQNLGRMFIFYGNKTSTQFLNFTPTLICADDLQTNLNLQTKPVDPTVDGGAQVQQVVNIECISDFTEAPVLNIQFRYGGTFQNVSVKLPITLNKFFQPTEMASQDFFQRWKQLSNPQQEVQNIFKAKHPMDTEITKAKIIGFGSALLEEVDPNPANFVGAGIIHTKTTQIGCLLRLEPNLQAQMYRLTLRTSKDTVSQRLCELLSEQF
substance,measurement,setting,value
"SERINC3-L10: GST SERINC-L10 (residues 354 to 404), Serinc3 loop binding Cμ2 only at BR4 (RTSTNSQVDKLTLSGSDSVILGDTTTSGASDEEDGQPRRAVDNEKEGVQYS; also: GST fusion, end not given here)",binding to BR4-mutated Cμ2 compared with WT Cμ2,[1],severely inhibited
SDLLAWDPLFG [FCHO2 C peptide],pKd,"AP2 α-appendage; 100 mM tris pH 7.4, 150 mM NaCl, 0.25 mM TCEP, 12°C, mean ± SEM, minimum three independent runs, read-out: KD of C block peptide binding to α-appendage",3.70 to 4.00
"DYQRLN [TGN38, TGN38 YxxΦ cargo peptide (DYQRLN)]",pKd,Cμ2,~5.70
"FCHO1 C: GST-FCHO1 C (residues 414 to 444), Fig. 4B construct ({GST}-SAPRTSSCAERLQSEEQVSKNLFGPPLESAF; UniProt O14526 414-444, looked up, fragment)",n (stoichiometry) of C block peptide binding to α-appendage,AP2 α-appendage,1.0
"FCHO2 C: GST-FCHO2 C (residues 413 to 444), Fig. 4B construct ({GST}-SAPPNEKGTSDLLAWDPLFGPSLDSSSSSSLT; UniProt Q0JRZ9 413-444, looked up, fragment)",n (stoichiometry) of C block peptide binding to α-appendage,AP2 α-appendage,1.0
